Laboratory results reported in publication PMC7070167, “Cell‐permeable high‐affinity tracers for Gq proteins provide structural insights, reveal distinct binding kinetics and identify small molecule inhibitors” (British Journal of Pharmacology, 2020).
Read-outs that look alike come from different tables or passages of the source. *1 amine or outer side, *2 acyl side, *3 side chain or, on linkers, in order; H or OH if unused. Where a SMILES comes first, the peptide text is derived from it. Bridges are numbered along the chain shown (N, C = ends). [ ]: non-standard residue; d: D form. The star is where a group is joined. Leu(3R-O(AcLeu(3R-OH))) = CC(=O)N[C@H](C(=O)O[C@H](C(C)C)[C@H](N)C(=O)O)[C@H](O)C(C)C; Leu(3R-OH,Nα-propionyl) = CCC(=O)N[C@H](C(=O)*)[C@H](O)C(C)C; X1 = CC(C)[C@@H](O[*:3])[C@H](N[*:1])C(=O)[*:2]; NMeT = CN[C@H](C(=O)O)[C@@H](C)O; dPhLac = O=C(O)[C@H](O)Cc1ccccc1; NMeA = CN[C@@H](C)C(=O)O; NMeDha = C=C(NC)C(=O)O

Target: T1, mouse Gαq (Mus musculus, UniProt P21279, D130A/E125D/N126V/V129Y/Y128D)
T1 construct: expressed in transfected cells; membrane preparations
T1 sequence (P21279 1-359 E125D/N126V/Y128D/V129Y/D130A): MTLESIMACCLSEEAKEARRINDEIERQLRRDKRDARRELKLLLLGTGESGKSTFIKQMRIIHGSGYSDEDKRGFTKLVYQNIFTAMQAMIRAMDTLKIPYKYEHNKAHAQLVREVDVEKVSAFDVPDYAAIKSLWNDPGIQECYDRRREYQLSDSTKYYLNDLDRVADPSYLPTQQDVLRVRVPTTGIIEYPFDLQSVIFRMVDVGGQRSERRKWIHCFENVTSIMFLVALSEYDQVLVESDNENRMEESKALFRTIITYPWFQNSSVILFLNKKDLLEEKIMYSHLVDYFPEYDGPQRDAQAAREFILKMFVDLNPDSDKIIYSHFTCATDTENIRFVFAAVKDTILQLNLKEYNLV
Experiment: Competition binding at membranes of HEK-CRISPR-Cas9-Gαq-KO cells expressing Gαq
Protocol: cDNAs encoding for the α‐subunits of the human G11, G14, G15 and mouse Gq guanine nucleotide‐binding proteins in a pcDNA3.1(+) vector were obtained from E. Kostenis. CRISPR/Cas9‐Gαq‐knockout (KO) HEK293 cells were from M. Yamaguchi. The protein sequences of the human and mouse Gαq proteins differ only by one amino acid in position 171 (alanine in human and serine in mouse). […]. After 16 hr, 3 ml of DMEM containing 10% FBS, 1% of a penicillin/streptomycin solution (final concentrations: penicillin = 100 U·ml^−1, streptomycin = 0.1 mg·ml^−1), and sodium butyrate (5 mM) was added to the packaging cells. They were kept at 32°C and 5% CO2 for 48 hr, during which the viral vectors containing the receptor sequence were produced and released into the surrounding medium. These were harvested, filtered ([…] filter pore diameter), and added to HEK293 cells that had previously been modified via CRISPR/Cas9 genome editing to lack Gαq expression. Polybrene solution (6 μl, 4 mg·ml^−1 in H2O, filtered) was added. After 2.5 hr, the virus‐containing medium was discarded, and DMEM supplemented with 10% FBS and 1% of a penicillin/streptomycin solution (final concentrations: penicillin = 100 U·ml^−1, streptomycin = 0.1 mg·ml^−1) was given to the cells. These were incubated for 2 days, followed by selection of successfully transfected cells with geneticin resistance by adding G418 (200 μg·ml^−1) to the medium. The cells were cultured in these media at 37°C and 10% CO2 until membrane preparations were generated.
Recombinant HEK cells were cultured to 70% of confluence. The culture medium was discarded, and cells were washed once with approximately 5 ml of PBS. Dishes were stored at −20°C until further use. After defrosting, cells were detached with a rubber scraper after adding 5‐mM Tris–HCl, 2‐mM EDTA, pH 7.4. The collected cell suspension was homogenized using an Ultra‐Turrax® for 1 min at a speed level of 4. The cell suspension was transferred into tubes and centrifuged for 10 min at 1,000 g, 4°C. The pellet (P1) was discarded, and the supernatant was centrifuged for 45 min at 48,400 g, 4°C. The resulting supernatant was discarded, and the pellet (P2) was resuspended in 50‐mM Tris–HCl, pH 7.4, and centrifuged again for 45 min at 48,400 g, 4°C. This step was repeated once again, and the suspension was subsequently homogenized using an Ultra‐Turrax® for 1 min at a speed level of 4 (IKA Laborechnik), transferred into cryovials, and stored at −80°C (for up to several months). […]
The experiments were performed in 50‐mM Tris–HCl buffer, pH 7.4. […] Non‐specific binding was determined in the presence of 5‐μM FR. […] Luma Safe® scintillation cocktail (2.5 ml) was added, and after 6 hr of incubation, the samples were counted for 1 min each, using a liquid scintillation counter (counting efficiency 53%). […]

| SMILES | IC50 [nM] | Pseudo-Bmax ± SD (FR versus [³H]PSB-15900 (5 nM), 37°C, Gq) [pmol/mg] | Pseudo-Bmax ± SD (YM versus [³H]PSB-16254 (5 nM), 37°C, Gq) [pmol/mg] | IC50 (YM versus [³H]PSB-16254 (5 nM), 37°C, Gq, read-out: pIC50 ± SD (converted)) [nM] |
| --- | --- | --- | --- | --- |
| C=C1C(=O)N[C@@H](C)C(=O)N(C)[C@@H](C)C(=O)N[C@@H]([C@H](OC(=O)[C@@H](NC(=O)CC)[C@H](O)C(C)C)C(C)C)C(=O)N(C)[C@@H]([C@@H](C)OC)C(=O)O[C@H](C(C)C)[C@H](NC(C)=O)C(=O)O[C@H](Cc2ccccc2)C(=O)N1C [FR, FR900359] (Ac-[X1][dPhLac][NMeDha]A[NMeA][X1](Leu(3R-OH,Nα-propionyl))[NMeT](Me); ester 1-C) | 13.2 | 6.09 ± 0.59 |  |  |
| C=C1C(=O)N[C@@H](C)C(=O)N(C)[C@@H](C)C(=O)N[C@@H]([C@H](OC(=O)[C@@H](NC(C)=O)[C@H](O)C(C)C)C(C)C)C(=O)N(C)[C@@H]([C@@H](C)OC)C(=O)O[C@H](C)[C@H](NC(C)=O)C(=O)O[C@H](Cc2ccccc2)C(=O)N1C [YM, YM‐254890] (Ac-T[dPhLac][NMeDha]A[NMeA][Leu(3R-O(AcLeu(3R-OH)))][NMeT](Me); ester 1-C) |  |  | 6.04 ± 1.43 | 6.17 |
